Experimental data as given in US20230167101A1, “NOVEL INHIBITORS OF HISTONE […] P300/CBP FOR CANCER THERAPY” (BAYLOR COLLEGE OF MEDICINE, priority 2020, published 2023).

Biological target: T1, HAT domain of human p300 (Homo sapiens, UniProt Q09472)
T1 construct: The HAT domain (1195-1673) of human p300 was cloned, inserted into pGEX-KG vector; made in house; host or cells: E. coli BL21-CodonPlus
T1 sequence (Q09472 1195-1673): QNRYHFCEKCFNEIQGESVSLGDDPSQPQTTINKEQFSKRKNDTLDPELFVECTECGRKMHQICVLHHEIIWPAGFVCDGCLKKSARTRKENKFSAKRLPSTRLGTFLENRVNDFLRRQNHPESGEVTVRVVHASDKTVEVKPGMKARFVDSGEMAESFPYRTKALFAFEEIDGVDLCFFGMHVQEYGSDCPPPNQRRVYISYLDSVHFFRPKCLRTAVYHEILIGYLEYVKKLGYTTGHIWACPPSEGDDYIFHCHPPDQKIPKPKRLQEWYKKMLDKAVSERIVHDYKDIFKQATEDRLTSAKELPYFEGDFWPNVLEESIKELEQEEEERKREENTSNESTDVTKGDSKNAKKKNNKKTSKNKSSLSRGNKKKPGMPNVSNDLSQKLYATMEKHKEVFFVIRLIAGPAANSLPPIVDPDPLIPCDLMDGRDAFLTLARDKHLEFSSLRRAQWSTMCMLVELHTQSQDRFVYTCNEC
Assay: p300 HAT inhibition assay (3H-Ac-CoA, histone H3 (1-21) peptide)
Format: biochemical
Details: not given
Protocol: A biochemical assay to determine the activity and inhibition of recombinant HAT domain of human p300 was developed, using the substrate histone H3 (1-21) peptide and the ^3H-labeled cofactor Ac—CoA.
The HAT domain (1195-1673) of human p300 was cloned, inserted into pGEX-KG vector and the DNA sequence was verified by sequencing. The p300-HAT expression plasmid was transformed into E. coli BL21-CodonPlus strain (Agilent) and cultured at 37° C. in LB medium containing ampicillin (50 µg/mL) and chloramphenicol (34 µg/mL). After the optical density of the bacterial culture reached ~0.9 at 600 nm, p300 HAT expression was induced by adding 300 µM isopropylthiogalactoside (IPTG) at 18° C. for 48 hours. Cells were collected, lysed, centrifuged for 20 min at 20,000 rpm. The supernatant was subjected to column chromatography with glutathione sepharose resins. […] CBP, PCAF and Myst3 HATs were obtained using similar methods.
To determine inhibitory activity, a compound with concentrations ranging from 100 nM to 10 µM was incubated with p300-HAT (10 nM) in 20 µL of 50 mM phosphate buffer (pH = 7.0) containing 0.01% Brij-35 for 10 min at 25° C. […] After 30 min at 25° C., the reaction was stopped by adding 6 N formic acid (5 µL). 20 µL of reaction mixture was then transferred to a small piece of P81 filter paper (Whatman) that binds histone H3 peptide. The filter paper was washed 3x with 50 mM NaHCO3, dried, and transferred into a scintillation vial containing 2 mL of scintillation cocktail. Radioactivity on the filter paper was measured with a Beckman LS-6500 scintillation counter. IC50 values were obtained by using a standard sigmoidal dose response curve fitting in Prism (version 5.0, GraphPad Software, Inc., La Jolla, CA). IC50 values were the mean values from at least three experiments.

inhibitory activity against p300 HAT (in words)	SMILES
complete loss of inhibitory activity	CC(C)(C)c1ccc(-c2cc(COCC3CCNCC3)sc2-c2ccc(C(C)(C)C)cc2)cc1 [Compound 13]
Loss of activity	CCCCc1ccc(-c2cc(CNCC3CCNCC3)sc2-c2ccc(CCCC)cc2)cc1 [Compound 23]

Same assay, conditions: p300 HAT

SMILES	activity reduction relative to compound 12
CC(C)c1ccc(-c2cc(CNCC3CCNCC3)sc2-c2ccc(C(C)C)cc2)cc1 [Compound 22]	~ 8 x
CC(C)(C)c1ccc(-c2cc(CNCCC3CCNCC3)sc2-c2ccc(C(C)(C)C)cc2)cc1 [Compound 15]	~3 fold

Same assay, conditions: read-out: IC50 against p300 HAT

SMILES	IC50 [µM]
CC(C)(C)c1ccc(-c2cc(CNCC3CCNCC3)oc2-c2ccc(C(C)(C)C)cc2)cc1 [Compound 34]	9.8
CC(C)c1ccc(-c2cc(CNCC3CCNCC3)sc2-c2ccc(C(C)C)cc2)cc1 [Compound 22]	5.4
CC(C)(C)c1ccc(-c2cc(CN(C=O)CC3CCNCC3)sc2-c2ccc(C(C)(C)C)cc2)cc1 [Compound 21]	7
c1cc(-c2ccc(-c3cc(CNCC4CCNCC4)sc3-c3ccc(-c4ccoc4)cc3)cc2)co1 [Compound 11]	1.7
CC(C)(C)c1ccc(-c2cc(CNCCCN)sc2-c2ccc(C(C)(C)C)cc2)cc1 [Compound 16]	3
CC(C)(C)c1ccc(-c2cc(CNCCC3CCNCC3)sc2-c2ccc(C(C)(C)C)cc2)cc1 [Compound 15]	2.2
CC(C)(C)c1ccc(-c2cc(C(=O)NCC3CCNCC3)sc2-c2ccc(C(C)(C)C)cc2)cc1 [Compound 1]	8.6
CN(Cc1cc(-c2ccc(C(C)(C)C)cc2)c(-c2ccc(C(C)(C)C)cc2)s1)CC1CCNCC1 [Compound 20]	4.4

Tested on: Kasumi-1 leukemia cells
Assay: Cellular histone acetylation, Western blot
Format: cell-based
Details: Kasumi-1 cells, 12 h, 5 and 10 µM
Protocol: Kasumi-1 leukemia cells were treated with increasing concentrations of these compounds for 12 h. Histone was extracted and subjected to electrophoresis separation and Western blot staining to determine levels of acetylation at various lysine residues. […] H3K27 seems to be the most sensitive cellular substrate of p300 HAT. […] This might be due to different mode of inhibition or cell permeability for the two compounds.
About 10^6 Kasumi-1 cells per well were incubated with compound 11 at 0, 5 and 10 µM for 12 hours. Histone proteins were extracted using EpiQuik total histone extraction kit (Epigentek), according to the manufacturer’s protocol. Equal amounts of histones (2 µg) were separated on SDS-PAGE and transferred to PVDF membranes. The blots were probed with primary antibodies against H3K9Ac, H3K18Ac, H3K27Ac and H3 (Cell Signaling), followed by anti-rabbit IgG (Thermo Scientific) secondary antibodies.

SMILES	cellular acetylation of histone H3K9, H3K18 and H3K27
CC1=NN(c2ccc(C(=O)O)cc2)C(=O)/C1=C\c1ccc(-c2cc(C)c(C)cc2[N+](=O)[O-])o1 [Compound C646, reference compound]	inhibited
